In ChEMBL document CHEMBL4507310, “Data for DCP probe A-1211212” (2021):

Key:
[1] = target: Cannabinoid receptor 1 (Homo sapiens) (UniProt P21554); test: CB1 (h) Eurofins-Cerep binding assay; design: ligand concentration 0.5 nM; conditions: filed as agonist, Compound concentration 10.0 uM
[2] = target: Cannabinoid receptor 2 (Homo sapiens) (UniProt P34972); test: CB2 (h) Eurofins-Cerep binding assay; design: ligand concentration 0.8 nM; conditions: filed as agonist, Compound concentration 10.0 uM
[3] = target: T1, 5-hydroxytryptamine receptor 3A (Homo sapiens) (UniProt P46098); test: 5-HT3 (h) Eurofins-Cerep binding assay; design: ligand concentration 0.5 nM; conditions: filed as antagonist, Compound concentration 10.0 uM
T1 sequence (whole entry): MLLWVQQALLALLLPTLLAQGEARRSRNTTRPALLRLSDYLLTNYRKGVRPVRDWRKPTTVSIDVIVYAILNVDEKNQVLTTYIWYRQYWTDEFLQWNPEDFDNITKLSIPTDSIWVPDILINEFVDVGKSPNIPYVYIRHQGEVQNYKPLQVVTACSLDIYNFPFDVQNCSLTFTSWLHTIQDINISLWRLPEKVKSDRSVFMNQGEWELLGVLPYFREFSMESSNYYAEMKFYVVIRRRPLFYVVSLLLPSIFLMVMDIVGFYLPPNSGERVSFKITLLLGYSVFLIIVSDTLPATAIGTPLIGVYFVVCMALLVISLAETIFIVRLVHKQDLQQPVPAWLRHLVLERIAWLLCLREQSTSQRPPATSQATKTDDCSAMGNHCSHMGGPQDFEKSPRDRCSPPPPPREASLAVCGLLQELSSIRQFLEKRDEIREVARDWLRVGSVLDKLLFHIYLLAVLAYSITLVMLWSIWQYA

[4] = target: Sigma non-opioid intracellular receptor 1 (Homo sapiens) (UniProt Q99720); test: sigma (non-selective) (h) Eurofins-Cerep binding assay; design: ligand concentration 10 nM; conditions: filed as agonist, Compound concentration 10.0 uM
[5] = test system: Tyrosine-protein kinase ABL1 (Homo sapiens), P00519 [F317I]; conditions: Compound concentration 1000.0 nM
[6] = target: Tyrosine-protein kinase ABL1 (Homo sapiens) (UniProt P00519); conditions: Compound concentration 1000.0 nM
[7] = target: Mitogen-activated protein kinase kinase kinase 6 (Homo sapiens) (UniProt O95382); conditions: Compound concentration 1000.0 nM
[8] = target: Bone morphogenetic protein receptor type-2 (Homo sapiens) (UniProt Q13873); conditions: Compound concentration 1000.0 nM
[9] = target: Cytoplasmic tyrosine-protein kinase BMX (Homo sapiens) (UniProt P51813); conditions: Compound concentration 1000.0 nM
[10] = target: Calcium/calmodulin-dependent protein kinase type II subunit beta (Homo sapiens) (UniProt Q13554); conditions: Compound concentration 1000.0 nM
[11] = target: Calcium/calmodulin-dependent protein kinase type IV (Homo sapiens) (UniProt Q16566); conditions: Compound concentration 1000.0 nM
[12] = target: Cyclin-dependent kinase 11B (Homo sapiens) (UniProt P21127); conditions: Compound concentration 1000.0 nM
[13] = target: Serine/threonine-protein kinase Chk1 (Homo sapiens) (UniProt O14757); conditions: Compound concentration 1000.0 nM
[14] = target: Casein kinase I isoform gamma-1 (Homo sapiens) (UniProt Q9HCP0); conditions: Compound concentration 1000.0 nM
[15] = target: Dual specificity tyrosine-phosphorylation-regulated kinase 1A (Homo sapiens) (UniProt Q13627); conditions: Compound concentration 1000.0 nM
[16] = target: Eukaryotic translation initiation factor 2-alpha kinase 1 (Homo sapiens) (UniProt Q9BQI3); conditions: Compound concentration 1000.0 nM
[17] = target: Ephrin type-A receptor 7 (Homo sapiens) (UniProt Q15375); conditions: Compound concentration 1000.0 nM
[18] = target: Ephrin type-B receptor 6 (Homo sapiens) (UniProt O15197); conditions: Compound concentration 1000.0 nM
[19] = target: Receptor tyrosine-protein kinase erbB-4 (Homo sapiens) (UniProt Q15303); conditions: Compound concentration 1000.0 nM
[20] = target: Mitogen-activated protein kinase 3 (Homo sapiens) (UniProt P27361); conditions: Compound concentration 1000.0 nM
[21] = target: Mitogen-activated protein kinase 15 (Homo sapiens) (UniProt Q8TD08); conditions: Compound concentration 1000.0 nM
[22] = target: Fibroblast growth factor receptor 3 (Homo sapiens) (UniProt P22607); conditions: Compound concentration 1000.0 nM
[23] = target: Serine/threonine-protein kinase haspin (Homo sapiens) (UniProt Q8TF76); conditions: Compound concentration 1000.0 nM
[24] = target: Insulin-like growth factor 1 receptor (Homo sapiens) (UniProt P08069); conditions: Compound concentration 1000.0 nM
[25] = test system: Mast/stem cell growth factor receptor Kit (Homo sapiens), P10721 [V559D,V654A]; conditions: Compound concentration 1000.0 nM
[26] = target: Serine/threonine-protein kinase MAK (Homo sapiens) (UniProt P20794); conditions: Compound concentration 1000.0 nM
[27] = target: Mitogen-activated protein kinase kinase kinase 10 (Homo sapiens) (UniProt Q02779); conditions: Compound concentration 1000.0 nM
[28] = target: Serine/threonine-protein kinase 38 (Homo sapiens) (UniProt Q15208); conditions: Compound concentration 1000.0 nM
[29] = target: Serine/threonine-protein kinase PAK 6 (Homo sapiens) (UniProt Q9NQU5); conditions: Compound concentration 1000.0 nM
[30] = target: Cyclin-dependent kinase 18 (Homo sapiens) (UniProt Q07002); conditions: Compound concentration 1000.0 nM
[31] = target: Ribosomal protein S6 kinase alpha-5 (Homo sapiens) (UniProt O75582); conditions: Compound concentration 1000.0 nM
[32] = target: Ribosomal protein S6 kinase alpha-2 (Homo sapiens) (UniProt Q15349); conditions: Compound concentration 1000.0 nM
[33] = target: Serine/threonine-protein kinase 33 (Homo sapiens) (UniProt Q9BYT3); conditions: Compound concentration 1000.0 nM
[34] = target: Serine/threonine-protein kinase TAO2 (Homo sapiens) (UniProt Q9UL54); conditions: Compound concentration 1000.0 nM
[35] = target: Serine/threonine-protein kinase WNK1 (Homo sapiens) (UniProt Q9H4A3); conditions: Compound concentration 1000.0 nM
[36] = target: Serine/threonine-protein kinase WNK3 (Homo sapiens) (UniProt Q9BYP7); conditions: Compound concentration 1000.0 nM
[37] = target: T1, 5-hydroxytryptamine receptor 3A (Homo sapiens); conditions: Compound concentration 10.0 uM
[38] = target: Mu-type opioid receptor (Homo sapiens) (UniProt P35372); conditions: Compound concentration 10.0 uM

Chain of Calcium/calmodulin-dependent protein kinase type II subunit beta (Homo sapiens) (Q13554 whole entry): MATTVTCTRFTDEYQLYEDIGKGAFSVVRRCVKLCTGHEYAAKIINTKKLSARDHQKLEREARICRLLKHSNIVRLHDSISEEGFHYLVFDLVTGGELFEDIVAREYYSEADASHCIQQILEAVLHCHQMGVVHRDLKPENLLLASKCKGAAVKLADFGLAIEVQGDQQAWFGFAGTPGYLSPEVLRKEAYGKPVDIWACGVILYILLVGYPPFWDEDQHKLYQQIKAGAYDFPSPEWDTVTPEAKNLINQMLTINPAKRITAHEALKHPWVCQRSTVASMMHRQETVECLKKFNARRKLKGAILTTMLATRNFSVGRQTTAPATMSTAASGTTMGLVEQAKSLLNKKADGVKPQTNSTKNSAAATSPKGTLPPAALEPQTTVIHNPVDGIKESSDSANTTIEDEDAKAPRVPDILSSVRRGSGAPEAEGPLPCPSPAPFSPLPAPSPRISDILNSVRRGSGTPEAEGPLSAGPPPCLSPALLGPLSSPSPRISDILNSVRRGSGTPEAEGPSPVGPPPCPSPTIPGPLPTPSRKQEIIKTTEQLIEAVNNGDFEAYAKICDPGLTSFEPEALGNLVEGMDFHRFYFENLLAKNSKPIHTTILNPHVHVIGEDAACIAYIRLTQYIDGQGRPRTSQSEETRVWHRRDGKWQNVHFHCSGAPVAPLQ
Chain of Ephrin type-B receptor 6 (Homo sapiens) (O15197 whole entry): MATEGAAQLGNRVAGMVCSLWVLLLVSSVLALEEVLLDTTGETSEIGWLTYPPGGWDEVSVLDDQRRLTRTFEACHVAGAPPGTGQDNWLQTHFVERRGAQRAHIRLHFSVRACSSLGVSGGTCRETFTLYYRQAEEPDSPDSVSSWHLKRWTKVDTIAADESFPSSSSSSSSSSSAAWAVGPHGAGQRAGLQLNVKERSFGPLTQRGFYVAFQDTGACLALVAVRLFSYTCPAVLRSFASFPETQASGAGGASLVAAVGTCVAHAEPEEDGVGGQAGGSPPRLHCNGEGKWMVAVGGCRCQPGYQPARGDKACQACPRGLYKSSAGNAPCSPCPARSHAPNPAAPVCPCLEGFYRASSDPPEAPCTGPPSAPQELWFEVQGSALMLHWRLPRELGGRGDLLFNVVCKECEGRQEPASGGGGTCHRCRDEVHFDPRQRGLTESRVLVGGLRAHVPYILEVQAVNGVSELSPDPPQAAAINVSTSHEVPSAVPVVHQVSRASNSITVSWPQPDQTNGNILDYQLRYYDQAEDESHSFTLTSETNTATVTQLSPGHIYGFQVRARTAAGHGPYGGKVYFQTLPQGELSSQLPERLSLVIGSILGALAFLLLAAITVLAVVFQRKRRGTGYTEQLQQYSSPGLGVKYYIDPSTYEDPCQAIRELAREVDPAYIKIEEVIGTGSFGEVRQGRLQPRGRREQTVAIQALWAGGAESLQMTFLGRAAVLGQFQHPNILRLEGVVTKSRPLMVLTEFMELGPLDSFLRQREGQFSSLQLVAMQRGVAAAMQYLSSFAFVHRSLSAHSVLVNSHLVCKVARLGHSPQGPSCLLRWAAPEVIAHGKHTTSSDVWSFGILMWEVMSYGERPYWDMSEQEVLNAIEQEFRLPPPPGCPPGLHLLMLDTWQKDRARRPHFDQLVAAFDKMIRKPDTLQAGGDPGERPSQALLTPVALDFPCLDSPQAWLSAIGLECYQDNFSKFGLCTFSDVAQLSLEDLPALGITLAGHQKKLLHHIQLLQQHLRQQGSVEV
Chain of Ephrin type-A receptor 7 (Homo sapiens) (Q15375 28-998 limits assumed): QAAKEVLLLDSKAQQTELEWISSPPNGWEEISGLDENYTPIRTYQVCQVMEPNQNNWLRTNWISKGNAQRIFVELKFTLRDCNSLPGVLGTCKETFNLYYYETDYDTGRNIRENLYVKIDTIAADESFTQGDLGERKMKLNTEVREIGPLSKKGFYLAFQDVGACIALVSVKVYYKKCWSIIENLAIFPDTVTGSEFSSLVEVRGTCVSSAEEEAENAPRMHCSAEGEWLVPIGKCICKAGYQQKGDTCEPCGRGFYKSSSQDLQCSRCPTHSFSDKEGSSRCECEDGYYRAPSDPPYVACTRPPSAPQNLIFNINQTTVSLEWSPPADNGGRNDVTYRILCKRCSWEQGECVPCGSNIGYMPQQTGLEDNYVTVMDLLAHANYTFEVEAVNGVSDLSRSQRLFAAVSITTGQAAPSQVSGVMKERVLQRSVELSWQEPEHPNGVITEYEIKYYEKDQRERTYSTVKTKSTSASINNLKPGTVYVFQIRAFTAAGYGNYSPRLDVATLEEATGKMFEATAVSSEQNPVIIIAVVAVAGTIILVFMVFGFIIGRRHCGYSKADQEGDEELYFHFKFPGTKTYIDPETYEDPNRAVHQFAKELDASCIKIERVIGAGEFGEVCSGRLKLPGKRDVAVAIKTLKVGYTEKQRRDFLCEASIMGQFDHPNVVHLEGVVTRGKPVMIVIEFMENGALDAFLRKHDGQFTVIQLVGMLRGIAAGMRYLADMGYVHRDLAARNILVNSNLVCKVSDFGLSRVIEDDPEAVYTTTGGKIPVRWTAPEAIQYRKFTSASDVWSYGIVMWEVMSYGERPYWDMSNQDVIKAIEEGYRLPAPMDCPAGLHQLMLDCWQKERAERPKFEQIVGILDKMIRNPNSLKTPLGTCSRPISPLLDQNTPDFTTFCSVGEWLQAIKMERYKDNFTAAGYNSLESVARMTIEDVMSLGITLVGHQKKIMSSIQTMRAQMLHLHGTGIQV
Chain of Receptor tyrosine-protein kinase erbB-4 (Homo sapiens) (Q15303 whole entry): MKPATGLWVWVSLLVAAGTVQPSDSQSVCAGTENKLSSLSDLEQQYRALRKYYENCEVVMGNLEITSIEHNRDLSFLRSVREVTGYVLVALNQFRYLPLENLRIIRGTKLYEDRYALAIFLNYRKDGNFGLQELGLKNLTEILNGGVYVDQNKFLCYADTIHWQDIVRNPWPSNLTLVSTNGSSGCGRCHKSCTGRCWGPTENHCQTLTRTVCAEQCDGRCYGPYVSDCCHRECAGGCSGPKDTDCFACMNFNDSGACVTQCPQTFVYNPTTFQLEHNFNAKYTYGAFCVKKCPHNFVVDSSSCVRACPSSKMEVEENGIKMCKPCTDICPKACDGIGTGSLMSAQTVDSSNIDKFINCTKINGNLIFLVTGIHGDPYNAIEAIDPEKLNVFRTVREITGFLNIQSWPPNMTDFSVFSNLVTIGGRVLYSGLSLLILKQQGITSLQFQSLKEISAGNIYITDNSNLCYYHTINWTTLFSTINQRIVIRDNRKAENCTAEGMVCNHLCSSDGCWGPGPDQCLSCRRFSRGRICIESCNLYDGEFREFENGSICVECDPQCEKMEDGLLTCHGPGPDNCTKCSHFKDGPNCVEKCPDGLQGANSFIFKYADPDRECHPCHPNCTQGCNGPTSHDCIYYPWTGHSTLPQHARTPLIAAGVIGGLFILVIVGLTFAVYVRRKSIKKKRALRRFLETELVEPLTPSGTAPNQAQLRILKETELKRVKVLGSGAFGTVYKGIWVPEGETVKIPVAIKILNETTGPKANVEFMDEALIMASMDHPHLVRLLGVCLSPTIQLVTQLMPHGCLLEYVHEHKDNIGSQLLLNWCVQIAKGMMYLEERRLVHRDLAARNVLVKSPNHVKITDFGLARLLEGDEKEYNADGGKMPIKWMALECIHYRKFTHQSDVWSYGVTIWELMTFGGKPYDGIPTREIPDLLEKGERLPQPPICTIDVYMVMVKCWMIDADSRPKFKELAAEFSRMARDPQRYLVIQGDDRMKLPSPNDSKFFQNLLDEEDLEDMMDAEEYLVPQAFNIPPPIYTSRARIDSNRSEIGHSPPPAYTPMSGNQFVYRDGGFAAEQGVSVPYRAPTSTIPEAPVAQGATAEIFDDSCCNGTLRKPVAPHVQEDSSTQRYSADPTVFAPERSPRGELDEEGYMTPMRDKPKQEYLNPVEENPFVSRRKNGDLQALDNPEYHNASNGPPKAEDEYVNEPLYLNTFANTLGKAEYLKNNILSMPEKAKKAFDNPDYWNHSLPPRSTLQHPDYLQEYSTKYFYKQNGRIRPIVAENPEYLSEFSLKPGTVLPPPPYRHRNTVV
Chain of Serine/threonine-protein kinase haspin (Homo sapiens) (Q8TF76 whole entry): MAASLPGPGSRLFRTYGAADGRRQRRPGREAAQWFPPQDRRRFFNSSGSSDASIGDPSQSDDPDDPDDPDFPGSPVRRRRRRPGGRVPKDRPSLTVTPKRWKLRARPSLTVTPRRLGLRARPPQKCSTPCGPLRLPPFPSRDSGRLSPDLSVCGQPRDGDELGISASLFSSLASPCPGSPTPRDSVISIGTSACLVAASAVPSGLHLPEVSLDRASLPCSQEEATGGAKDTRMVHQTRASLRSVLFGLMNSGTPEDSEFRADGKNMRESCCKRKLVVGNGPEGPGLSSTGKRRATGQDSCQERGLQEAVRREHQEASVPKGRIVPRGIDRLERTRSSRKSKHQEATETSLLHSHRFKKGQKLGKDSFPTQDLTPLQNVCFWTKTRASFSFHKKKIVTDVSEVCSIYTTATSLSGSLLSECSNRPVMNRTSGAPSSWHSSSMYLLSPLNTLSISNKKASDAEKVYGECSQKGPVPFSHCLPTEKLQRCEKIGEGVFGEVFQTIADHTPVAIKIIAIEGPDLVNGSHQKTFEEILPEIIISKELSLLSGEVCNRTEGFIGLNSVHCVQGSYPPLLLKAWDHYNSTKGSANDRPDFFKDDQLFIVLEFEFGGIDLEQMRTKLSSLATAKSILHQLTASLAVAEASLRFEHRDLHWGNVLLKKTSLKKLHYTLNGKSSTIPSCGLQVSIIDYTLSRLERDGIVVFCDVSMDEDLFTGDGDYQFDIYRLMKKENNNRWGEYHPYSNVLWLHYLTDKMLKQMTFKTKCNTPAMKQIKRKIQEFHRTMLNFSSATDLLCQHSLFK
Chain of Sigma non-opioid intracellular receptor 1 (Homo sapiens) (Q99720 whole entry): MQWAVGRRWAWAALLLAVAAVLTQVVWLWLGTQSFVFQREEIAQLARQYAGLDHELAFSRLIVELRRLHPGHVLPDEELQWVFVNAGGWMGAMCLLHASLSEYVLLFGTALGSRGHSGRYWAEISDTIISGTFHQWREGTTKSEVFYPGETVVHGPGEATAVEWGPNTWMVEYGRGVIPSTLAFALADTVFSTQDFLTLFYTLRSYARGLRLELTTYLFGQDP

Row | SMILES | % Inhibition of Control Specific Binding (Mean n=2) [1] [%] | % Inhibition of Control Specific Binding (Mean n=2) [2] [%] | % Inhibition of Control Specific Binding (Mean n=2) [3] [%] | % Inhibition of Control Specific Binding (Mean n=2) [4] [%] | residual activity [5] [%] | residual activity [6] [%] | residual activity [7] [%] | residual activity [8] [%] | residual activity [9] [%] | residual activity [10] [%] | residual activity [11] [%] | residual activity [12] [%] | residual activity [13] [%] | residual activity [14] [%] | residual activity [15] [%] | residual activity [16] [%] | residual activity [17] [%] | residual activity [18] [%] | residual activity [19] [%] | residual activity [20] [%] | further results
1 | O=C(NS(=O)(=O)c1ccc(NCC2CCOCC2)c([N+](=O)[O-])c1)c1ccc(N2CCN(Cc3ccc(C(F)(F)F)cc3-c3ccc(Cl)cc3)CC2)cc1Oc1cnc2[nH]ccc2c1 [A-1210227] | -13.7 | -13 | 0.2 | -104 | 87 | 86 | 80 | 100 | 100 | 96 | 100 | 97 | 100 | 95 | 63 | 84 | 88 | 82 | 100 | 98 | residual activity [21]: 94%; residual activity [22]: 100%; residual activity [23]: 85%; residual activity [24]: 100%; residual activity [25]: 100%; residual activity [26]: 97%; residual activity [27]: 95%; residual activity [28]: 90%; residual activity [29]: 73%; residual activity [30]: 100%; residual activity [31]: 97%; residual activity [32]: 100%; residual activity [33]: 100%; residual activity [34]: 82%; residual activity [35]: 100%; residual activity [36]: 100%; inhibition [37]: 8.67%; inhibition [38]: 10.7%
2 | CO[C@H]1CC[C@H](CNc2ccc(S(=O)(=O)NC(=O)c3ccc(N4CCN(CC5=C(c6ccc(Cl)cc6)CC(C)(C)CC5)CC4)cc3Oc3cnc4[nH]ccc4c3)cc2[N+](=O)[O-])CC1 [A-1211212] | -6.4 | 21.4 | -6.1 | 22.4 | 100 | 71 | 93 | 100 | 95 | 80 | 100 | 98 | 90 | 100 | 65 | 100 | 87 | 87 | 80 | 80 | residual activity [21]: 85%; residual activity [22]: 95%; residual activity [23]: 88%; residual activity [24]: 82%; residual activity [25]: 93%; residual activity [26]: 90%; residual activity [27]: 89%; residual activity [28]: 98%; residual activity [29]: 75%; residual activity [30]: 100%; residual activity [31]: 65%; residual activity [32]: 97%; residual activity [33]: 100%; residual activity [34]: 86%; residual activity [35]: 100%; residual activity [36]: 100%; inhibition [37]: 7.56%; inhibition [38]: 10.2%
